Like-named read-outs stand apart in the source and are kept apart here.
Tests used:
Full length Human HDAC6 = biological target: T1, Full length Human HDAC6 (Homo sapiens, UniProt Q9UBN7); details: for Selectivity (6 v 8) (fold): ratio of HDAC8 IC50/HDAC6 IC50
T1 sequence (Q9UBN7 1-1215): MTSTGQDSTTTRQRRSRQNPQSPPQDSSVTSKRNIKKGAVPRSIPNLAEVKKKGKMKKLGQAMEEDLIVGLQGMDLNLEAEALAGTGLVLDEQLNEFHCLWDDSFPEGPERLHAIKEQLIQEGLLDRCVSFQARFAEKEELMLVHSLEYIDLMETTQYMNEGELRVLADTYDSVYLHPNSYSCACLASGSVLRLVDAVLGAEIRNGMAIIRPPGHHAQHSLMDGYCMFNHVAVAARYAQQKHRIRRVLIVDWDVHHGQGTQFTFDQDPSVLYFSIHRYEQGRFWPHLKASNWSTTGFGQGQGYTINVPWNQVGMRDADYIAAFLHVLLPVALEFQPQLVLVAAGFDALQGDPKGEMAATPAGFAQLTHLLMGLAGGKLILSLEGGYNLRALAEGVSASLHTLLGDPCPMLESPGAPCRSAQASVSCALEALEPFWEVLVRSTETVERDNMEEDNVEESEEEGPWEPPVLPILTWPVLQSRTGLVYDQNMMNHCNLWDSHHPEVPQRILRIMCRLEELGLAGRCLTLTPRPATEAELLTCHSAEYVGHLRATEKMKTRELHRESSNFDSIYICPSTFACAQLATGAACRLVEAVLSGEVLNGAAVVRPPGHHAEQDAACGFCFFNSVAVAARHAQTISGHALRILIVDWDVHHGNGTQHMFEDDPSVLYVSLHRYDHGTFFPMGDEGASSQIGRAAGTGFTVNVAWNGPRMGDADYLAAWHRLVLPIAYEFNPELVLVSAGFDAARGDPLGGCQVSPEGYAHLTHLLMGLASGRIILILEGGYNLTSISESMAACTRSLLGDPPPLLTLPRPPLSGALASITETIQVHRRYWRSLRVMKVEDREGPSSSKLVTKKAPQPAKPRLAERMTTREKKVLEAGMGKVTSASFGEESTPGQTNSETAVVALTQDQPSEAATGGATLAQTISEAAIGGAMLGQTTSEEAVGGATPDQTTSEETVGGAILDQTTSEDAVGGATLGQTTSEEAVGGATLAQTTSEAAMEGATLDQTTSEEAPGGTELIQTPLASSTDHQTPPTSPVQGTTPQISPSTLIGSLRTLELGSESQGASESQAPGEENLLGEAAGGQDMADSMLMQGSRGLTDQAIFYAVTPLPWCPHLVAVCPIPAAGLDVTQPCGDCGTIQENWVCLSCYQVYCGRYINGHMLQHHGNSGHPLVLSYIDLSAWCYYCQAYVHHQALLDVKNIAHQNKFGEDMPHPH

Human HDAC7 aa 518-end = biological target: T2, Human HDAC7 aa 518-end (Homo sapiens, UniProt Q8WUI4)
T2 sequence (Q8WUI4 518-952 limits assumed): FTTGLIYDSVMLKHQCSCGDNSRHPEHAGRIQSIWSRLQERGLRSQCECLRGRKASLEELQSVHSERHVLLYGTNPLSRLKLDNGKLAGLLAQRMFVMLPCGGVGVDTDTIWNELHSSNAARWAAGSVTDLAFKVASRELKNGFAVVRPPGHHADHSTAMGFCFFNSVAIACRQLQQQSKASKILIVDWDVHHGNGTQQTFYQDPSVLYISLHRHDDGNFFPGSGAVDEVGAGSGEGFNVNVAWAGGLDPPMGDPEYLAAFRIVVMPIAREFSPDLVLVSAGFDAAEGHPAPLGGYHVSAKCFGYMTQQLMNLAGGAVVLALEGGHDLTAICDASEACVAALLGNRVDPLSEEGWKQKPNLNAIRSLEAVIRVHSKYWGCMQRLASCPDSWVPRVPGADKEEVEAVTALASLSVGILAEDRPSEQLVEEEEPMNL

Full length Human HDAC8 = biological target: T3, Full length Human HDAC8 (Homo sapiens, UniProt Q9BY41)
T3 sequence (Q9BY41 1-377): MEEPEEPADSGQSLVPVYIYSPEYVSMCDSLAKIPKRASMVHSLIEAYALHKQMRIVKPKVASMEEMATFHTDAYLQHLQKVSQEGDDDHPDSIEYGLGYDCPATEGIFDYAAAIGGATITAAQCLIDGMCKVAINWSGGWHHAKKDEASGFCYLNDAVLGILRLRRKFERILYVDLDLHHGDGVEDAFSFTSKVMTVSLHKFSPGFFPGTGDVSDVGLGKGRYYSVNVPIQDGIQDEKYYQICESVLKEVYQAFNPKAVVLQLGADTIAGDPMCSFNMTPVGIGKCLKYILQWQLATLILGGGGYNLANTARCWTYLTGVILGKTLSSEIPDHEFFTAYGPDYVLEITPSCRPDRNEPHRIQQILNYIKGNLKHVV

Full length Human HDAC10 = biological target: T4, Full length Human HDAC10 (Homo sapiens, UniProt Q969S8)
T4 sequence (Q969S8 1-669): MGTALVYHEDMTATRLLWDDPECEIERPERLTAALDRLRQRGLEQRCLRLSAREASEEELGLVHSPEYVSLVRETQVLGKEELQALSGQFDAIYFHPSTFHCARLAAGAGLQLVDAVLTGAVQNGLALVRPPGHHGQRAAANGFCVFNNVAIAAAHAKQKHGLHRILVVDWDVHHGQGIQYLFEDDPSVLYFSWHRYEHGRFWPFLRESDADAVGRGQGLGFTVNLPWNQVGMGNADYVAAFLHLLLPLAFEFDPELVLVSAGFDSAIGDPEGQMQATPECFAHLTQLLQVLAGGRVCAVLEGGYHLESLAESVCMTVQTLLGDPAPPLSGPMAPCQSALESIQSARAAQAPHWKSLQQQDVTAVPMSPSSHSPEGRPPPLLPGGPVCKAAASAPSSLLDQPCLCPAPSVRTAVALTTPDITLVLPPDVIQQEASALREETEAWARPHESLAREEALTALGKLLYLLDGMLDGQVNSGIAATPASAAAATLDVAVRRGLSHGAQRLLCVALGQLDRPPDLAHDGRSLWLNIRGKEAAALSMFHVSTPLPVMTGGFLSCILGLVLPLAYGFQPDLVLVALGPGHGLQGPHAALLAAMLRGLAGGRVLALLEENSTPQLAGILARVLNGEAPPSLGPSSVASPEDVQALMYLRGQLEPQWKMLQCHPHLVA

[1] = read-out: In vitro enzymatic IC50, HDAC Paralog 8, Table 2
[2] = read-out: In vitro enzymatic IC50, HDAC Paralog 6, Table 2

Row | SMILES | IC50 (Full length Human HDAC6) [nM] | IC50 (Human HDAC7 aa 518-end) [nM] | IC50 (Full length Human HDAC8) [nM] | IC50 (Full length Human HDAC10) [nM] | IC50 (Full length Human HDAC8; [1]) [nM] | IC50 (Full length Human HDAC6; [2]) [nM] | Selectivity (6 v 8) (fold) (Full length Human HDAC6; Table 1, number) | Selectivity (6 v 8) (fold) (Full length Human HDAC6; Table 1, range class)
1 | O=C(NO)c1ccc2c(c1)C[C@H]1COCC(=O)N1C2 (single isomer, unassigned) [compound 134] | 1 to 100 | 10000 to 100000 | 1000 to 10000 | 10000 to 100000 |  |  |  | 
2 | CC1(C)C[C@@H]2Cc3c(F)cc(C(=O)NO)cc3CN2C1 (single isomer, unassigned) [compound 127] | 1 to 100 | 1000 to 10000 | 1000 to 10000 | > 100000 |  |  |  | 
3 | CC(C)(C)CN1CCc2cc(C(=O)NO)cc(F)c2C1 [compound 20] | 1 to 100 | > 100000 | 10000 to 100000 | 10000 to 100000 | 10000 to 100000 | 1 to 100 |  | 
4 | O=C(NO)c1ccc(CN2CCC3(CCCCC3)CC2)c(F)c1 [compound 74] | 100 to 1000 | 1000 to 10000 | 1000 to 10000 | 10000 to 100000 | 1000 to 10000 | 100 to 1000 | 24.9 | III (III: >10-100)
5 | O=C(NO)c1ccc(CN2CCC3(C2)C2CC4CC(C2)CC3C4)c(F)c1 (stereo not shown) [compound 78] | 1000 to 10000 | 10000 to 100000 | 100 to 1000 | > 100000 | 100 to 1000 | 1000 to 10000 | 0.4 | I (I: 0.1-1)
6 | O=C(NO)c1cc(F)c2c(c1)C[C@@H]1CC3(CCCCC3)CN1C2 (single isomer, unassigned) [compound 136] | 1 to 100 | 1000 to 10000 | 1000 to 10000 | > 100000 |  |  |  | 
7 | CC1(C)C[C@H]2Cc3c(F)cc(C(=O)NO)cc3CN2C1 (single isomer, unassigned) [compound 128] | 100 to 1000 | 1000 to 10000 | 1000 to 10000 | > 100000 |  |  |  | 
8 | CN1CC2(CCCCC2)CC[C@@H]1Cc1cc(F)cc(C(=O)NO)c1 (single isomer, unassigned) [compound 170] | 1 to 100 | 1000 to 10000 | 1000 to 10000 | 10000 to 100000 | 1000 to 10000 | 1 to 100 | 68 | III (III: >10-100)
9 | O=C(NO)c1ccc(CN2C3CCCC2CCC3)c(F)c1 [compound 60] | 100 to 1000 | 1000 to 10000 | 1000 to 10000 | > 100000 | 1000 to 10000 | 100 to 1000 | 5.8 | II (II: >1-10)
10 | O=C(NO)c1cc(F)c(CN2CCC3(CCCCC3)C2)cc1F [compound 67] | 1 to 100 | 1000 to 10000 | 1000 to 10000 | 10000 to 100000 | 1000 to 10000 | 1 to 100 | 20 | III (III: >10-100)
11 | O=C(NO)c1ccc(CN2C3CCCC2CC3)c(F)c1 [compound 61] | 100 to 1000 | 1000 to 10000 | 1000 to 10000 | > 100000 | 1000 to 10000 | 100 to 1000 | 9.6 | II (II: >1-10)
12 | O=C(NO)c1ccc(CN2C3CCC2COC3)c(F)c1 [compound 59] | 1 to 100 | 1000 to 10000 | 100 to 1000 | 10000 to 100000 | 100 to 1000 | 1 to 100 |  | 

Other lines, results leading:

Row | IC50 (Full length Human HDAC6) [nM] | IC50 (Human HDAC7 aa 518-end) [nM] | IC50 (Full length Human HDAC8) [nM] | IC50 (Full length Human HDAC10) [nM] | IC50 (Full length Human HDAC8; [1]) [nM] | IC50 (Full length Human HDAC6; [2]) [nM] | Selectivity (6 v 8) (fold) (Full length Human HDAC6; Table 1, number) | Selectivity (6 v 8) (fold) (Full length Human HDAC6; Table 1, range class) | SMILES
13 | 1 to 100 | 100 to 1000 | 1000 to 10000 | > 100000 |  |  |  |  | C[C@@H]1CC[C@H]2c3c(F)cc(C(=O)NO)cc3CCN12 (single isomer, unassigned) [compound 158]
14 | 1 to 100 | 10000 to 100000 | 1000 to 10000 | 10000 to 100000 | 1000 to 10000 |  |  |  | O=C(NO)c1cc(F)c2c(c1)CCN([C@@H]1CCC3(CCCCC3)C1)C2 (single isomer, unassigned) [compound 110]
15 | 1 to 100 | 100 to 1000 | 1000 to 10000 | 10000 to 100000 |  |  |  |  | C[C@H]1CC[C@H]2c3c(F)cc(C(=O)NO)cc3CCN12 (single isomer, unassigned) [compound 157]
16 | 1 to 100 | 1000 to 10000 | 1000 to 10000 | > 100000 | 1000 to 10000 | 1 to 100 |  |  | O=C(NO)c1cc(F)c2c(c1)CCN(C1COC1)C2 [compound 24]
17 | 1 to 100 | 10000 to 100000 | 10000 to 100000 | 10000 to 100000 | 10000 to 100000 | 1 to 100 | 461.1 | IV (IV: >100-1000) | O=C(NO)c1cc(F)c2c(c1)CCN(C1CC3(COC3)C1)C2 [compound 111]
18 | 1 to 100 | 10000 to 100000 | 1000 to 10000 | 10000 to 100000 | 1000 to 10000 | 1 to 100 |  |  | O=C(NO)c1cc(F)c2c(c1)CCN(CC1CCCCC1)C2 [compound 19]
19 | 1 to 100 | 1000 to 10000 | 10000 to 100000 | > 100000 | 10000 to 100000 | 1 to 100 |  |  | O=C(NO)c1cc(F)c2c(c1)CCN(CC1COC1)C2 [compound 27]
20 | 1 to 100 | 10000 to 100000 | > 100000 | > 100000 | > 100000 | 1 to 100 | >12414.6 | V (V: >1000) | O=C(NO)c1cc(F)c2c(c1)CCN(C1CC3(CCC3)C1)C2 [compound 112]
21 | 1 to 100 | 1000 to 10000 | 1000 to 10000 | 10000 to 100000 |  |  |  |  | O=C(NO)c1cc(F)c2c(c1)CCN1CCCC[C@@H]21 (single isomer, unassigned) [compound 139]
